Assay results from patent US20110184418A1, “Unsealed, Non-Colloidal Radiopharmaceutical Compositions and Methods for Treatment of Abnormal Tissue” (priority 2009, published 2011).

Assay: Radioactive decay of the isotopes
Type: physicochemical
Conditions: at day 30, from half-life

SMILES | radioactive isotope expected to remain in the subject
[177Lu] [Lu-177, lutetium-177] | less than 6.25%
[166Ho] [Ho-166, holmium-166] | less than 0.20%
